{
  "source": "ChEMBL document CHEMBL3877333",
  "about": "“Bicyclic Ketone Sulfonamide Compounds” (ACS Med Chem Lett, 2017)",
  "data": [
    {"target": "Sodium channel protein type 9 subunit alpha (Homo sapiens, UniProt Q15858)", "sequence (Q15858 whole entry)": "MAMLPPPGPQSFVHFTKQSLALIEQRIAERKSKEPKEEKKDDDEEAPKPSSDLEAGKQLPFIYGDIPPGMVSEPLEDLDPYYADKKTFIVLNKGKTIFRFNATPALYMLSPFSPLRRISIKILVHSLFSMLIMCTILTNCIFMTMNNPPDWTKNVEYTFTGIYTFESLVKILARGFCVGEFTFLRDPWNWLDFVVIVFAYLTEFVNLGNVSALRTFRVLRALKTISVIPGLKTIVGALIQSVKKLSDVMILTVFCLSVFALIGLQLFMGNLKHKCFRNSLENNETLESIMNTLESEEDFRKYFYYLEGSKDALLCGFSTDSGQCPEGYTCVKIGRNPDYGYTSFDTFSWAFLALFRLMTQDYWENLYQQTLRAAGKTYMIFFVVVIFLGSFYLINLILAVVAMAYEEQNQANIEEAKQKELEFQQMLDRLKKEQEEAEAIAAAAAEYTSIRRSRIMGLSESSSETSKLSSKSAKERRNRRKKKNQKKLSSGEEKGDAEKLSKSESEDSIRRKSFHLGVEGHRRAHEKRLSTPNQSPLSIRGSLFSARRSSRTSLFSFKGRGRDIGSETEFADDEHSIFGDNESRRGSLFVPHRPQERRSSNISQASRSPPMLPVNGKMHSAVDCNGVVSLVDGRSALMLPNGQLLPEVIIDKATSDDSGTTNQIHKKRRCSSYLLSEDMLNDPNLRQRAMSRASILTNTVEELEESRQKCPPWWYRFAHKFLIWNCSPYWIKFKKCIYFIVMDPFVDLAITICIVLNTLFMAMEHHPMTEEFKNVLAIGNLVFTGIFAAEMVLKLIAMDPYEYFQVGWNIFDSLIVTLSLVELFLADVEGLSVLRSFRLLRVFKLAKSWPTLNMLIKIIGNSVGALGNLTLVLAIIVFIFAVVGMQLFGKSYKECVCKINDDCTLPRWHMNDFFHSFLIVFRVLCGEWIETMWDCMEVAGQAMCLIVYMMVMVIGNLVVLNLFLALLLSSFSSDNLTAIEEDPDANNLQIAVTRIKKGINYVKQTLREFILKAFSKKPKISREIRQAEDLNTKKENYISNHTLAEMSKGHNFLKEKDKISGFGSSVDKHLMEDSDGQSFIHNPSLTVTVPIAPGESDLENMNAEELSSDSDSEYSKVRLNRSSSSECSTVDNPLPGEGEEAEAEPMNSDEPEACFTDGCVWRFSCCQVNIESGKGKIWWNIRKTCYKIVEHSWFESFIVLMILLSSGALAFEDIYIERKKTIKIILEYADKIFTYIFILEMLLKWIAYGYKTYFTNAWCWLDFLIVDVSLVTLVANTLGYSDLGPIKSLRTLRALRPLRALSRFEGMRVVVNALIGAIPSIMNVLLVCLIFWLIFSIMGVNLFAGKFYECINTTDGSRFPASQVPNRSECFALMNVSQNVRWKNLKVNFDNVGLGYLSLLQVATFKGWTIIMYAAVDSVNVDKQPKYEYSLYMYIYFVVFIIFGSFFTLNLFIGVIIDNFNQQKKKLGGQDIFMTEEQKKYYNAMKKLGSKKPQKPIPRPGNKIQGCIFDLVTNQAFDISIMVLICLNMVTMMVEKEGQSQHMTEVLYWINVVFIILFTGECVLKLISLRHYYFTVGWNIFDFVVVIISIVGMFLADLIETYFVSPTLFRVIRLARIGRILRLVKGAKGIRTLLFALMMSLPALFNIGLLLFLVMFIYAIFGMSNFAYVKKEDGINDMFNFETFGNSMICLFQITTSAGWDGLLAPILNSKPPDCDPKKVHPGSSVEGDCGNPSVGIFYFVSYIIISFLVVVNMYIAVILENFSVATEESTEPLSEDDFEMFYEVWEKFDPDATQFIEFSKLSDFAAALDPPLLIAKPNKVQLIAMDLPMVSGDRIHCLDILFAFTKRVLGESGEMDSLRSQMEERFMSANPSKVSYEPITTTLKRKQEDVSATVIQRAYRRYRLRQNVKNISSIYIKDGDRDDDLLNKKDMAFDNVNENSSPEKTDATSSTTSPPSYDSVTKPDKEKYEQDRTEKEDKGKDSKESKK", "test": "Inhibition of human Nav1.7 expressed in HEK293 cells at holding potential yielding 20 to 50% inactivation measured after 3 mins by patchXpress electrophysiology assay", "type": "cell-based", "units": {"IC50": "nM"}, "values": [
      {"smiles": "COc1cc(-c2cccc(OC(F)F)c2)c(F)cc1-n1c2c(ccc1=O)CN(S(=O)(=O)Nc1ccon1)CC2", "IC50": 5.5},
      {"smiles": "COc1cc(-c2cc(OC)c(-n3c4c(ccc3=O)CN(S(=O)(=O)Nc3ccon3)CC4)cc2F)ccc1C", "IC50": 12.3},
      {"smiles": "COc1cc(-c2ccc(F)c(F)c2)c(F)cc1-n1c2c(ccc1=O)CN(S(=O)(=O)Nc1cccnn1)CC2", "IC50": 23.7},
      {"smiles": "COc1cc(-c2cc(F)cc(Cl)c2)c(F)cc1-n1c2c(ccc1=O)CN(S(=O)(=O)Nc1ccon1)CC2", "IC50": 4.3},
      {"smiles": "COc1cc(-c2ccc(F)c(F)c2)c(F)cc1-n1c2c(ccc1=O)CN(S(=O)(=O)Nc1ccon1)CC2", "IC50": 6.7},
      {"smiles": "COc1cc(-c2cccc(C(F)(F)F)c2)c(F)cc1-n1c2c(ccc1=O)CN(S(=O)(=O)Nc1ccon1)CC2", "IC50": 4.7},
      {"smiles": "COc1cc(-c2ccc(Cl)c(C)c2)c(F)cc1-n1c2c(ccc1=O)CN(S(=O)(=O)Nc1cccnn1)CC2", "IC50": 19.6}
    ]}
  ]
}
